Calls of active or inactive are those of the source. The calls are words filed in the database; no cut-off is given here.
Key:
[1] = Dissociation constant, pKa of the compound; format: physicochemical
Rattus norvegicus [2] = assay: Antiarthritic activity in complete Freund's adjuvant-induced Lewis rat arthritis model assessed as suppression of paw swelling at 0.1 mg/kg, po qd for 21 days started from day of immunization measured 3 times per week of compound dosing by water displacement plethysmometry relative to control; format: functional
Homo sapiens [3] = species: Homo sapiens; assay: Inhibition of sodium channel (unknown origin) at 10 uM by patch clamp method relative to control
Cynomolgus monkey [4] = assay: Clearance in cynomolgus monkey at 2 mg/kg, iv relative to hepatic blood flow; format: ADME, organism-based, Macaca fascicularis; conditions: in vivo
Plasma = assay: Ratio drug level in Lewis rat plasma at 0.3 mg/kg, po at 4 hrs to drug level in Lewis rat plasma at 0.3 mg/kg, po at 24 hrs; format: ADME, organism-based; conditions: in vivo
Mus musculus [5] = assay: Oral bioavailability in mouse at 10 mg/kg; format: ADME, organism-based; conditions: in vivo
Rattus norvegicus [6] = assay: Antiarthritic activity in po dosed complete Freund's adjuvant-induced Lewis rat arthritis model assessed as inhibition of paw inflammation administered as qd for 21 days started from day of immunization; format: functional, organism-based
Cytochrome P450 2B6 = molecular target: T1, Cytochrome P450 2B6 (Homo sapiens, UniProt P20813); assay: Inhibition of CYP2B6 (unknown origin); format: ADME
T1 sequence (P20813 whole entry): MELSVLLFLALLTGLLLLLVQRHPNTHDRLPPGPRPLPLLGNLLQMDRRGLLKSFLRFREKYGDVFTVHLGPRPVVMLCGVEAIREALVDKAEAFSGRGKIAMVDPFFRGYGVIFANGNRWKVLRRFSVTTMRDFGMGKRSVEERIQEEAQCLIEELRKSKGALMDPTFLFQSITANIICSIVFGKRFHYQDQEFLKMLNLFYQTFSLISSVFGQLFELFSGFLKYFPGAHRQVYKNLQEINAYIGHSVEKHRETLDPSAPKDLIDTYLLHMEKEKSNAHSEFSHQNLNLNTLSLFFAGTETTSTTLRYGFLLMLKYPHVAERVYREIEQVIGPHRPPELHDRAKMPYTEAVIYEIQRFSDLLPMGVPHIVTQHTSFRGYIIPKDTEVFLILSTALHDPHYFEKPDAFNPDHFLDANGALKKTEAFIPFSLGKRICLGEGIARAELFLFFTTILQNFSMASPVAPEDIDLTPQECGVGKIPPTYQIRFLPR

Homo sapiens [7] = species: Homo sapiens; assay: Selectivity ratio of EC50 for human S1P3 receptor to EC50 for human S1P1 receptor
[8] = AUC in cynomolgus monkey at 5 mg/kg, po; format: ADME, organism-based, Macaca fascicularis; conditions: in vivo
[9] = Oral bioavailability in dog at 1 mg/kg; format: ADME, organism-based, Canis lupus familiaris; conditions: in vivo
[10] = Volume of distribution at steady state in rat at 2 mg/kg, iv; format: ADME, organism-based; conditions: in vivo, read-out: Vdss
[11] = molecular target: Sphingosine 1-phosphate receptor 1 (Homo sapiens, UniProt P21453); assay: Induction of internalization of C-terminal GFP-fused human S1P1 receptor expressed in CHO […] assessed as remaining receptor level in cell membrane at 4.6 nM preincubated for 50 mins followed by compound washout measured at 4 hrs relative to control; format: cell-based
Sphingosine 1-phosphate receptor 1, sequence (P21453 whole entry, the tested form may be a part): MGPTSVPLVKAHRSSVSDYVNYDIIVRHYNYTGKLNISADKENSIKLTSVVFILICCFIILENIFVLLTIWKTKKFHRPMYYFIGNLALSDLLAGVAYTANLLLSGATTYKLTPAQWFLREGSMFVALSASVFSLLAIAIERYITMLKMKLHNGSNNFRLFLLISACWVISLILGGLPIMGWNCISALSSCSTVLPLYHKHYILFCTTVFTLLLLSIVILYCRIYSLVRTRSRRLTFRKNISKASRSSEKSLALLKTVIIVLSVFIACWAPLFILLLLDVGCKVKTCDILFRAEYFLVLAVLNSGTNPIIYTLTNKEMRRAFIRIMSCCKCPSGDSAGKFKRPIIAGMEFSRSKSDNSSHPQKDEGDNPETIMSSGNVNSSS

[12] = Clearance in dog at 1 mg/kg, iv; format: ADME, organism-based, Canis lupus familiaris; conditions: in vivo
[13] = Plasma concentration in Lewis rat at 0.3 mg/kg, po measured at 24 hrs; format: ADME, organism-based
[14] = molecular target: Sphingosine 1-phosphate receptor 3 (Homo sapiens, UniProt Q99500); assay: Agonist activity at human S1P3 receptor expressed in EDG3-Ga15-bla HEK293T cell membranes after 45 mins by [35S]-GTPgammaS binding assay; format: functional, HEK-293T
Sphingosine 1-phosphate receptor 3, sequence (Q99500 whole entry): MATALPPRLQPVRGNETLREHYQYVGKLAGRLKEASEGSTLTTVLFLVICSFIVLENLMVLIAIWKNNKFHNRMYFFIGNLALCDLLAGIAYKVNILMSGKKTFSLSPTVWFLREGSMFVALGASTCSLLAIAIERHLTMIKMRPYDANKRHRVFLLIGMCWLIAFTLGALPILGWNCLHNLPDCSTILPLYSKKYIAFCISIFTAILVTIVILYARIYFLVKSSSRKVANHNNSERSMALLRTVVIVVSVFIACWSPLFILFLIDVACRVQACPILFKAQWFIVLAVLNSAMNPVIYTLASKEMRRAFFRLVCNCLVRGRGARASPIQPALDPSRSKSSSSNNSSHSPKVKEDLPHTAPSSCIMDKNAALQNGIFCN

[15] = Mean residence time in cynomolgus monkey at 2 mg/kg, iv; format: ADME, organism-based, Macaca fascicularis; conditions: in vivo
Rattus norvegicus [16] = assay: Reduction of blood lymphocyte level in Lewis rat at 1 mg/kg, po measured at 24 hrs by hematology analyzer relative to vehicle-treated control; format: functional; set-up: scale not given: the % may be the effect or the level left
[17] = Volume of distribution at steady state in mouse at 2 mg/kg, iv; format: ADME, organism-based; conditions: in vivo, read-out: Vdss
[18] = Plasma protein binding in mouse; format: ADME, cell-free; conditions: read-out: PPB
Rattus norvegicus [19] = assay: Antiarthritic activity in complete Freund's adjuvant-induced Lewis rat arthritis model assessed as suppression of paw swelling at 0.5 to 3 mg/kg, po qd for 21 days started from day of immunization measured 3 times per week of compound dosing by water displacement plethysmometry; format: functional, organism-based
[20] = Plasma concentration in Lewis rat at 0.3 mg/kg, po measured at 4 hrs; format: ADME, organism-based
Salmonella typhi = assay: Mutagenicity in Salmonella typhi by Ames test; format: toxicity, organism-based; conditions: salmonella enterica subsp. enterica […]
Rattus norvegicus [21] = assay: Reduction of blood lymphocyte level in po dosed Lewis rat measured at 4 to 24 hrs by hematology analyzer; format: functional, organism-based
Cytochrome P450 2C8 = molecular target: T2, Cytochrome P450 2C8 (Homo sapiens, UniProt P10632); assay: Inhibition of CYP2C8 (unknown origin); format: ADME
T2 sequence (P10632 whole entry): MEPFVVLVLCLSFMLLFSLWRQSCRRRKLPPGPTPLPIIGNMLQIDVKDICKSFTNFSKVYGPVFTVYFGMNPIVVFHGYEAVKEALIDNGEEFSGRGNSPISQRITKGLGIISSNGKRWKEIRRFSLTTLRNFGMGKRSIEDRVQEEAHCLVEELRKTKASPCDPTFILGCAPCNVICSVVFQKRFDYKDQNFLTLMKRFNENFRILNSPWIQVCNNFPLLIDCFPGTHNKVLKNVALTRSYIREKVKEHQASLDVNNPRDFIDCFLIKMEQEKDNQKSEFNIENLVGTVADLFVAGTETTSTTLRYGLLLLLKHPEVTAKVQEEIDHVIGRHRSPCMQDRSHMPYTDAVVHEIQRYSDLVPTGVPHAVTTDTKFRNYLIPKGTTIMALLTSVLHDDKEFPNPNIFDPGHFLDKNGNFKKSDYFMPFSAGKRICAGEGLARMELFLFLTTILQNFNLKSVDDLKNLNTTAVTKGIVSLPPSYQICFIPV

Cytochrome P450 2D6 = Cytochrome P450 2D6 (Homo sapiens, UniProt P10635); assay: Inhibition of CYP2D6 (unknown origin); format: ADME
Cytochrome P450 2D6, sequence (P10635 whole entry): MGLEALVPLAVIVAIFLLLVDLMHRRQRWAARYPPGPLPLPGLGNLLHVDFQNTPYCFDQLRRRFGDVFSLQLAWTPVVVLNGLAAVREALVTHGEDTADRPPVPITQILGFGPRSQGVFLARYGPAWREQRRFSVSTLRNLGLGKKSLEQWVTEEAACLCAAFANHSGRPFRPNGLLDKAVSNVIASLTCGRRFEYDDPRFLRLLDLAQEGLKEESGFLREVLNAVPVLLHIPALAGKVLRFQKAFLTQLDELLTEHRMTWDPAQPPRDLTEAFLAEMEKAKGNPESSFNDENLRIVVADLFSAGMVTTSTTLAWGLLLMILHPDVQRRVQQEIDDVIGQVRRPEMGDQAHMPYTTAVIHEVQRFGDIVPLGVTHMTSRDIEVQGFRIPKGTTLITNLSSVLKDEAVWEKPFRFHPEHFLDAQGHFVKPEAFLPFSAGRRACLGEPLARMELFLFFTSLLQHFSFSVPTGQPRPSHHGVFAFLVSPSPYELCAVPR

Cytochrome P450 3A4 = Cytochrome P450 3A4 (Homo sapiens, UniProt P08684); assay: Inhibition of CYP3A4 (unknown origin); format: ADME
Cytochrome P450 3A4, sequence (P08684 whole entry): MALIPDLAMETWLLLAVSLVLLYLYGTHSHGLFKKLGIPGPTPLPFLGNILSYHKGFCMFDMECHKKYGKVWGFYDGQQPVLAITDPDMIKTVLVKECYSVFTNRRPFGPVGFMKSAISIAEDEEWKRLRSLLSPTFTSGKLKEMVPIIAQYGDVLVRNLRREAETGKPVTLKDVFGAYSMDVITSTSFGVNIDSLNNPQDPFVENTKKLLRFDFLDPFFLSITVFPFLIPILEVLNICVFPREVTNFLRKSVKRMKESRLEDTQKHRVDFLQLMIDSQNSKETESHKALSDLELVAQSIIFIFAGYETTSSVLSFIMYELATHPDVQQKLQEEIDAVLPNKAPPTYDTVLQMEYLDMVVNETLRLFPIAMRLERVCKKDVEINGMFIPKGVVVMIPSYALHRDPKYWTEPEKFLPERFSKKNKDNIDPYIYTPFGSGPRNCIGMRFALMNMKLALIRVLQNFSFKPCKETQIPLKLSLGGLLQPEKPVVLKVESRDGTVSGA

[22] = Clearance in rat at 2 mg/kg, iv; format: ADME, organism-based; conditions: in vivo
[23] = Plasma concentration in Lewis rat at 1 mg/kg, po measured at 24 hrs; format: ADME, organism-based
Mus musculus [24] = assay: Clearance in mouse at 2 mg/kg, iv relative to hepatic blood flow; format: ADME, organism-based; conditions: in vivo
[25] = Cmax in cynomolgus monkey at 5 mg/kg, po; format: ADME, organism-based, Macaca fascicularis; set-up: dose 5 mg/kg, route oral; conditions: in vivo
[26] = Permeability of the compound at pH 7.4 by PAMPA; format: ADME; conditions: read-out: permeability
Rattus norvegicus [27] = assay: Reduction of blood lymphocyte level in Lewis rat at 0.3 mg/kg, po measured at 24 hrs by hematology analyzer relative to vehicle-treated control; format: functional; set-up: scale not given: the % may be the effect or the level left
Rattus norvegicus [28] = assay: Reduction of blood lymphocyte level in Lewis rat at 1 mg/kg, po measured at 4 hrs by hematology analyzer relative to vehicle-treated control; format: functional; set-up: scale not given: the % may be the effect or the level left
Cynomolgus monkey [29] = assay: Ratio of Cmax to Cmin in cynomolgus monkey at 5 mg/kg, po; format: ADME, organism-based, Macaca fascicularis; conditions: in vivo
Rattus norvegicus [30] = assay: Reduction of blood lymphocyte level in Lewis rat at 0.3 mg/kg, po measured at 4 hrs by hematology analyzer relative to vehicle-treated control; format: functional; set-up: scale not given: the % may be the effect or the level left

For O=C(O)C1CN(Cc2ccc(-c3noc(-c4onc(-c5ccccc5)c4C(F)(F)F)n3)cc2)C1, the pKa [1] was 3.7, the Activity (Rattus norvegicus [2]) was >50% and the inhibition (Homo sapiens [3]) was < 5%. The CL (Cynomolgus monkey [4]) was 12%, the Ratio (Plasma) was 7 and the F (Mus musculus [5]) was 71%. The inhibition (Rattus norvegicus [6]) was “Dose-dependent effect”, the IC50 (Cytochrome P450 2B6) was > 40 µM and the Ratio EC50 (Homo sapiens [7]) was 3400. The AUC [8] was 25 µM·h, the bioavailability [9] was 45% and the Vd [10] was 1.4 L/kg. For the same molecule, the Activity [11] was 20%, the clearance [12] was 1.6 mL/min/kg and the concentration at 24 h [13] was 25 nM. The EC50 [14] was 1.6 µM, the MRT [15] was 2.2 h and the Activity (Rattus norvegicus [16]) was 91%. The Vd [17] was 0.2 L/kg, the fraction unbound [18] was 0.001 and the Activity (Rattus norvegicus [19]) was “Active”. The concentration at 4 h [20] was 180 nM, the Activity (Salmonella typhi) was “Non-toxic” and the Activity (Rattus norvegicus [21]) was “Dose-dependent effect”. The IC50 (Cytochrome P450 2C8) was > 40 µM, the IC50 (Cytochrome P450 2D6) was > 40 µM and the IC50 (Cytochrome P450 3A4) was > 40 µM. The clearance [22] was 1.7 mL/min/kg, the concentration at 24 h [23] was 700 nM and the CL (Mus musculus [24]) was 0.3%. For the same molecule, the Cmax [25] was 4000 nM, the Papp [26] was 103 ×10⁻⁶ cm/s and the Activity (Rattus norvegicus [27]) was 73%. For the same molecule, the Activity (Rattus norvegicus [28]) was 78%, the Ratio (Cynomolgus monkey [29]) was 37 and the Activity (Rattus norvegicus [30]) was 82%.
